Source: US20260283966A1, “PROTEIN PARTICLES AND METHODS OF MAKING AND USING THE SAME” (Dairy Management Inc., priority 2023, published 2026)

Test: ABTS radical scavenging capacity
Format: biochemical
Settings: 0.05 mg mL^−1, all treatments
Method: ABTS radical scavenging capacity was measured according to the previously published protocol with some modifications (Dong et al., 2016). The modifications are as follow: samples were dissolved in phosphate buffer (pH 7.4) to a concentration of 0.05 mg mL^−1. Next, a 200 μl aliquot of the sample was mixed with 20 μl of the ABTS working solution and the mixture was stored in dark for 20 min at room temperature (~25° C.).

In the case of `N[C@@H](Cc1c[nH]c2ccccc12)C(=O)O` [Trp, L-Tryptophan], the “relative ABTS radical scavenging capacity” value is reported as “strong relative ABTS radical scavenging capacity and was not influenced by treatments”.
